Measured values taken from publication PMC4331254 (European journal of pharmacology, 2015).
Where two headings read alike, the source gives them in different places.

Legend:
[1] = system: male Sprague-Dawley rats; conditions: for substitution for phenyzoline discriminative stimulus: full ≥ 80%, partial ≥ 60% and < 80% training drug-appropriate responding; for antagonism of the discriminative stimulus effects of phenyzoline: 10-min pretreatment, dose ratio 95% CLs included 1
[2] = system: male Sprague-Dawley rats; conditions: for substitution for BU224 discriminative stimulus: full ≥ 80%, partial ≥ 60% and < 80% training drug-appropriate responding; for antagonism of the discriminative stimulus effects of BU224: 10-min pretreatment, dose ratio 95% CLs included 1
[3] = system: rats; conditions: rat, in vivo; cited from earlier work
[4] = system: rats discriminating 2-BFI; conditions: ref MacInnes and Handley, 2002, Jordan et al., 1996; cited from earlier work
[5] = target: I2 receptors; conditions: cited from earlier work
[6] = system: rats discriminating CR4056; conditions: ref Qiu et al., 2014a; cited from earlier work
[7] = target: β 3 (Homo sapiens, UniProt P13945); experiment: Binding selectivity screening, β 3; conditions: read-out: % inhibition (10nM)
[8] = target: β 2 (Homo sapiens, UniProt P07550); experiment: Binding selectivity screening, β 2; conditions: read-out: % inhibition (10nM)
[9] = target: 5-HT1B (Homo sapiens, UniProt P28222); experiment: Binding selectivity screening, 5-HT1B; conditions: read-out: % inhibition (10nM)
[10] = target: H1 (Homo sapiens, UniProt P35367); experiment: Binding selectivity screening, H1; conditions: read-out: % inhibition (10nM)
[11] = target: 5-HT3 (Homo sapiens, UniProt P46098); experiment: Binding selectivity screening, 5-HT3; conditions: read-out: % inhibition (10nM)
[12] = target: DAT (Homo sapiens, UniProt Q01959); experiment: Binding selectivity screening, DAT; conditions: read-out: % inhibition (10nM)
[13] = target: M4 (Homo sapiens, UniProt P08173); experiment: biochemical; type: binding; conditions: read-out: % inhibition (10nM)
[14] = target: κ opioid receptor (Homo sapiens, UniProt P41145); experiment: Binding selectivity screening, κ opioid receptor; conditions: read-out: % inhibition (10nM)
[15] = target: D1 (Homo sapiens, UniProt P21728); experiment: Binding selectivity screening, D1; conditions: read-out: % inhibition (10nM)
[16] = target: μ opioid receptor (Homo sapiens, UniProt P35372); experiment: Binding selectivity screening, μ opioid receptor; conditions: read-out: % inhibition (10nM)
[17] = target: 5-HT1D (Homo sapiens, UniProt P28221); experiment: Binding selectivity screening, 5-HT1D; conditions: read-out: % inhibition (10nM)
[18] = target: M3 (Homo sapiens, UniProt P20309); experiment: biochemical; type: binding; conditions: read-out: % inhibition (10nM)
[19] = target: δ opioid receptor (Homo sapiens, UniProt P41143); experiment: Binding selectivity screening, δ opioid receptor; conditions: read-out: % inhibition (10nM)
[20] = target: alpha 2B (Homo sapiens, UniProt P18089); experiment: Binding selectivity screening, alpha 2B; conditions: read-out: % inhibition (10nM)
[21] = target: D5 (Homo sapiens, UniProt P21918); experiment: Binding selectivity screening, D5; conditions: read-out: % inhibition (10nM)
[22] = target: 5-HT7 (Homo sapiens, UniProt P34969); experiment: Binding selectivity screening, 5-HT7; conditions: read-out: % inhibition (10nM)
[23] = target: 5-HT5A (Homo sapiens, UniProt P47898); experiment: Binding selectivity screening, 5-HT5A; conditions: read-out: % inhibition (10nM)
[24] = target: M1 (Homo sapiens, UniProt P11229); experiment: biochemical; type: binding; conditions: read-out: % inhibition (10nM)
[25] = target: 5-HT2C (Homo sapiens, UniProt P28335); experiment: Binding selectivity screening, 5-HT2C; conditions: read-out: % inhibition (10nM)
[26] = target: M5 (Homo sapiens, UniProt P08912); experiment: biochemical; type: binding; conditions: read-out: % inhibition (10nM)
[27] = target: SERT (Homo sapiens, UniProt P31645); experiment: Binding selectivity screening, SERT; conditions: read-out: % inhibition (10nM)
[28] = target: D3 (Homo sapiens, UniProt P35462); experiment: Binding selectivity screening, D3; conditions: read-out: % inhibition (10nM)
[29] = target: M2 (Homo sapiens, UniProt P08172); experiment: biochemical; type: binding; conditions: read-out: % inhibition (10nM)
[30] = target: β 1 (Homo sapiens, UniProt P08588); experiment: Binding selectivity screening, β 1; conditions: read-out: % inhibition (10nM)
[31] = target: 5-HT1E (Homo sapiens, UniProt P28566); experiment: Binding selectivity screening, 5-HT1E; conditions: read-out: % inhibition (10nM)
[32] = target: alpha 2A (Homo sapiens, UniProt P08913); experiment: Binding selectivity screening, alpha 2A
[33] = target: alpha 1D (Homo sapiens, UniProt P25100); experiment: Binding selectivity screening, alpha 1D; conditions: read-out: % inhibition (10nM)
[34] = target: D2 (Homo sapiens, UniProt P14416); experiment: Binding selectivity screening, D2; conditions: read-out: % inhibition (10nM)
[35] = target: NET (Homo sapiens, UniProt P23975); experiment: Binding selectivity screening, NET; conditions: read-out: % inhibition (10nM)
[36] = target: alpha 2B (Homo sapiens, UniProt P35368); experiment: Binding selectivity screening, alpha 2B; conditions: read-out: % inhibition (10nM)
[37] = target: 5-HT2A (Homo sapiens, UniProt P28223); experiment: Binding selectivity screening, 5-HT2A; conditions: read-out: % inhibition (10nM)
[38] = target: alpha 1A (Homo sapiens, UniProt P35348); experiment: Binding selectivity screening, alpha 1A; conditions: read-out: % inhibition (10nM)
[39] = target: H3 (Homo sapiens, UniProt Q9Y5N1); experiment: Binding selectivity screening, H3; conditions: read-out: % inhibition (10nM)
[40] = target: H4 (Homo sapiens, UniProt Q9H3N8); experiment: Binding selectivity screening, H4; conditions: read-out: % inhibition (10nM)
[41] = target: 5-HT1A (Homo sapiens, UniProt P08908); experiment: Binding selectivity screening, 5-HT1A
[42] = target: alpha 2C (Homo sapiens, UniProt P18825); experiment: Binding selectivity screening, alpha 2C; conditions: read-out: % inhibition (10nM)
[43] = target: D4 (Homo sapiens, UniProt P21917); experiment: Binding selectivity screening, D4; conditions: read-out: % inhibition (10nM)
D4, sequence (P21917 whole entry): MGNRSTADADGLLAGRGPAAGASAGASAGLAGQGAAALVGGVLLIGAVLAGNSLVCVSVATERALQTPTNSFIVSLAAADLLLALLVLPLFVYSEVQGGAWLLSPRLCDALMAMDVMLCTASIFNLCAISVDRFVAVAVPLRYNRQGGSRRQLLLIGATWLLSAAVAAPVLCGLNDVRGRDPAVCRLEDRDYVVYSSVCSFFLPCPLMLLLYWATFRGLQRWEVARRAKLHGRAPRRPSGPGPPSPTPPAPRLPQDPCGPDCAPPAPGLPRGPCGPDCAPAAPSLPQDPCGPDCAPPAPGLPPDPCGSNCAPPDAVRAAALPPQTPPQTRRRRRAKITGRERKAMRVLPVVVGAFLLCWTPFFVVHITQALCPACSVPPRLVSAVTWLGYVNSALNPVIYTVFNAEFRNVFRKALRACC

β 3, sequence (P13945 whole entry): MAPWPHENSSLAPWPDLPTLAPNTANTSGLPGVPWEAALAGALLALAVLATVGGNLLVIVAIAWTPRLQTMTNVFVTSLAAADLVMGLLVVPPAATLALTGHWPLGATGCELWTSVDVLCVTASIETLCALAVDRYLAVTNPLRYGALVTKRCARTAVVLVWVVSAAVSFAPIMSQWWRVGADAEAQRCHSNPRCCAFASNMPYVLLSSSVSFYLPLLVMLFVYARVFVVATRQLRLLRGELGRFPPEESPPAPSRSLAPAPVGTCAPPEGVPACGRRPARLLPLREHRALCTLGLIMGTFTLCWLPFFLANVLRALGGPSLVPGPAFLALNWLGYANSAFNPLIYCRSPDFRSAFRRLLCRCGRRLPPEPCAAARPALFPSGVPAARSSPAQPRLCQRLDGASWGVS
5-HT2C, sequence (P28335 33-458): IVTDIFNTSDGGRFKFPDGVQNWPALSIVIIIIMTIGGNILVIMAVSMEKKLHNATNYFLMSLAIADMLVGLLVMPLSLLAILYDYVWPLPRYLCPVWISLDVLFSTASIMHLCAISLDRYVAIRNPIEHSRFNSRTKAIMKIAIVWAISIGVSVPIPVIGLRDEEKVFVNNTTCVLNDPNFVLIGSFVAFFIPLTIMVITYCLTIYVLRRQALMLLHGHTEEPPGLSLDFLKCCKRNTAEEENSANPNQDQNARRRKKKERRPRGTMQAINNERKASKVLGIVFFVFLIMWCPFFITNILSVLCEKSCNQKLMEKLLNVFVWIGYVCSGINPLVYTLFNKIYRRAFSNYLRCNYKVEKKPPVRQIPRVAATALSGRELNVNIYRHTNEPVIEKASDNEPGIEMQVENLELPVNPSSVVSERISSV
M2, sequence (P08172 whole entry): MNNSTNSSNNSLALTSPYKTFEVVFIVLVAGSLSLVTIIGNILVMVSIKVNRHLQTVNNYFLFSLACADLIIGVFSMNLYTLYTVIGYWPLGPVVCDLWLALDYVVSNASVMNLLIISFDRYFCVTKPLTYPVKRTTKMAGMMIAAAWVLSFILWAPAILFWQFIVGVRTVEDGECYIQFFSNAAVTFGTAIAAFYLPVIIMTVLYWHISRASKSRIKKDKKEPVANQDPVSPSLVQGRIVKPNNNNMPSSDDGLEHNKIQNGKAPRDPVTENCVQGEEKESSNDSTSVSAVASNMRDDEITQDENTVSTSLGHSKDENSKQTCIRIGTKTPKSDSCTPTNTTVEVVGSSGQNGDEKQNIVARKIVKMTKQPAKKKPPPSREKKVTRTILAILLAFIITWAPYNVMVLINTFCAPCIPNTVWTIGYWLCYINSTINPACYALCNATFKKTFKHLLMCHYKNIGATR
H3, sequence (Q9Y5N1 whole entry): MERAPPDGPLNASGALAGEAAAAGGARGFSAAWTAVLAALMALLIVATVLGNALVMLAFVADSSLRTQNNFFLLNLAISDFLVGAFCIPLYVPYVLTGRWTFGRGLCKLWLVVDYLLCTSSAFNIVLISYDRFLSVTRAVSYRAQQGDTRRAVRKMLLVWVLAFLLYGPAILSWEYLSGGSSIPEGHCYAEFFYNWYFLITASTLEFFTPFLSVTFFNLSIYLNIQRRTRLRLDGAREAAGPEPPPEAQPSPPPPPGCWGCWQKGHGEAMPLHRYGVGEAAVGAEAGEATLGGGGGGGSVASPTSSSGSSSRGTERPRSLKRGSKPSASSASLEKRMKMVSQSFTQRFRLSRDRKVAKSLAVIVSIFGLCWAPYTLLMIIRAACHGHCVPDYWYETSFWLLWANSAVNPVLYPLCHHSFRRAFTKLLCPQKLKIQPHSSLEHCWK
5-HT2A, sequence (P28223 whole entry): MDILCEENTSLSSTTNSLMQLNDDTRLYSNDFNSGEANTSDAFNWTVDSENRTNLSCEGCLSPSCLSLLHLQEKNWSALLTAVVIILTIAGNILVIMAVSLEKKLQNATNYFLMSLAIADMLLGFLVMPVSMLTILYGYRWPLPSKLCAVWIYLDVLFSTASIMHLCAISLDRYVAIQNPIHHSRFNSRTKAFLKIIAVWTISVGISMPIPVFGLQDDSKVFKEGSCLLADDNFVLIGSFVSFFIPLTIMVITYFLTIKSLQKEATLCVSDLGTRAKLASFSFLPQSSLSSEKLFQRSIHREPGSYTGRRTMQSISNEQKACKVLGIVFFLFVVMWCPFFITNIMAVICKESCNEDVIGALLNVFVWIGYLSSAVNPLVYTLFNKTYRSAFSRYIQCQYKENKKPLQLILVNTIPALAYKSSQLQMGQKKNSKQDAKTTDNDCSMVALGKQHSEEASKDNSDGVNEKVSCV
alpha 2A, sequence (P08913 whole entry): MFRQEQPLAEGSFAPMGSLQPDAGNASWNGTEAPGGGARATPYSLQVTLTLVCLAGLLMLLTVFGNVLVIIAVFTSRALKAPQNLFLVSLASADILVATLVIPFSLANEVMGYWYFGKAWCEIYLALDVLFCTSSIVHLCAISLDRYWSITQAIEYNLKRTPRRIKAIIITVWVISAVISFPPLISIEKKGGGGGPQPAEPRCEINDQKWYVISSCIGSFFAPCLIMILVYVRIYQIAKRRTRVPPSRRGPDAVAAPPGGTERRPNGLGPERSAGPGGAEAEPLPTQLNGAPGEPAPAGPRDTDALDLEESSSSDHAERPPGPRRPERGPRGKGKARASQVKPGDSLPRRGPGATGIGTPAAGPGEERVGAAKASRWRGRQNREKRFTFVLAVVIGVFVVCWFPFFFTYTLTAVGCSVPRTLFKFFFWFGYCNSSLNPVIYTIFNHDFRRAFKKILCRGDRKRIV
μ opioid receptor, sequence (P35372 whole entry): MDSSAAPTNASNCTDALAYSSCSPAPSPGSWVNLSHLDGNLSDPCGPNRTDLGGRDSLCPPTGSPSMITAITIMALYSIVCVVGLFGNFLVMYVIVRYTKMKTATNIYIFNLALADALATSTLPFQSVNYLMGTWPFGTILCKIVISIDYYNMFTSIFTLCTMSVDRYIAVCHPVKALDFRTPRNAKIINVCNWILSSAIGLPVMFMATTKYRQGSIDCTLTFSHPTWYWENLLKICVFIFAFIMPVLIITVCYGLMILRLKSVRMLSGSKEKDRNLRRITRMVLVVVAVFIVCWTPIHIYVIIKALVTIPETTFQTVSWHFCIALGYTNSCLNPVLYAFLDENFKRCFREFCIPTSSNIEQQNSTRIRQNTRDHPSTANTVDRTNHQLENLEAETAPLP
β 2, sequence (P07550 whole entry): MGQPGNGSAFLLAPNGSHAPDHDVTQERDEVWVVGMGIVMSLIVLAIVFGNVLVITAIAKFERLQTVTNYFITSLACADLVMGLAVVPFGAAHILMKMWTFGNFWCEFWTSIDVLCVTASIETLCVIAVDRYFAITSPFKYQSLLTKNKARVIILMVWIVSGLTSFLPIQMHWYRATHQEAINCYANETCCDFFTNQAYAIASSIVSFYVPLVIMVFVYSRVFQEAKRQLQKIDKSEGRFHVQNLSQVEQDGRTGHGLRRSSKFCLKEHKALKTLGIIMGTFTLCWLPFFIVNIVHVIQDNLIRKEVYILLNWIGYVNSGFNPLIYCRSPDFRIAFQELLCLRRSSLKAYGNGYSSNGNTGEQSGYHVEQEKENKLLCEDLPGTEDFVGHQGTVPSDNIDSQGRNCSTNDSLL
M5, sequence (P08912 whole entry): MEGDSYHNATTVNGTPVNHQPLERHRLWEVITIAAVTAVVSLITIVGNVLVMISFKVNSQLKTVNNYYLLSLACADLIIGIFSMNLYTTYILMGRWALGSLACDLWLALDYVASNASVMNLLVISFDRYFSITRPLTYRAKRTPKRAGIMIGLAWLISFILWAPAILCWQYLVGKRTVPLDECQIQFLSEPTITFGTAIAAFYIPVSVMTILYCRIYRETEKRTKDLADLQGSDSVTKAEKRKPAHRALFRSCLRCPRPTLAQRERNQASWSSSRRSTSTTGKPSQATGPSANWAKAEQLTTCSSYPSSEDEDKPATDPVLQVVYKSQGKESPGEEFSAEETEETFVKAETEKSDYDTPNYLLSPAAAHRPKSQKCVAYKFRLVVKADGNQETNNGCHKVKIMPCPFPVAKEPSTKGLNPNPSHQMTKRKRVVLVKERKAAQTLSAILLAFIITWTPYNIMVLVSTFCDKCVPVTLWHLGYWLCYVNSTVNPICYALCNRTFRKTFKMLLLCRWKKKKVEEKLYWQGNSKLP
D2, sequence (P14416 whole entry): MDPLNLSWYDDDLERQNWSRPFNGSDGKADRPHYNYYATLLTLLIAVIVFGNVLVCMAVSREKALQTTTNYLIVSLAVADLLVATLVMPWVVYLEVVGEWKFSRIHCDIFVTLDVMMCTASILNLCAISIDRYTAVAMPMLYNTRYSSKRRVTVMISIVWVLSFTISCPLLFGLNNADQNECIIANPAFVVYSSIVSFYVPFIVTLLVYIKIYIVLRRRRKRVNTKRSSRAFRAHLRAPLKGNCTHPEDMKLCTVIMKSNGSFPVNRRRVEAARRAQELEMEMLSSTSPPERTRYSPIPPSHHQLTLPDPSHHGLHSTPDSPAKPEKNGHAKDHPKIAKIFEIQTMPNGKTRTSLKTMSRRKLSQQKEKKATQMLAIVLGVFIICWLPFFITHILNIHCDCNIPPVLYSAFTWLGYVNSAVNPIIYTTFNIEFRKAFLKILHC

Cl.c1ccc2oc(C3=NCCN3)cc2c1 [2-BFI, 2-(2-Benzofuranyl)-2-imidazoline hydrochloride]
substitution for phenyzoline discriminative stimulus [1]: only partially substituted | substitution for BU224 discriminative stimulus [2]: fully substituted | dose that significantly suppresses food-maintained operant responding [3]: 10 mg/kg

Cl.c1ccc2nc(C3=NCCN3)ccc2c1 [BU224, 2-(4,5-Dihydroimidazol-2-yl) quinoline hydrochloride]
substitution for phenyzoline discriminative stimulus [1]: completely substituted | duration of discriminative stimulus effects ([2]; 5.6 mg/kg BU224 i.p.): 120 min | effect on response rate ([2]; rat, in vivo): without significantly altering response rate | substitution for 2-BFI discriminative stimulus [4]: fully substituted | dose that significantly suppresses food-maintained operant responding [3]: 17.8 mg/kg

c1ccc(-c2ncc3cc(-n4ccnc4)ccc3n2)cc1 [CR4056, 2-phenyl-6-(1H-imidazol-1-yl) quinazoline]
IC50 ([5]; read-out: IC50 at I2 receptor, ref Ferrari et al., 2011): 596 nM

COc1cccc([C@H](O)C2CCN(CCc3ccc(F)cc3)CC2)c1OC [MDL100907, (R)-(2,3-dimethoxyphenyl)-[1-[2-(4-fluorophenyl)ethyl]-4-piperidyl] methanol]
antagonism of the discriminative stimulus effects of phenyzoline [1]: failed to antagonize | antagonism of the discriminative stimulus effects of BU224 [2]: failed to antagonize

Clc1cccc2c1CN(C1=NCCN1)C2 [RS45041, 4-chloro-2-(imidazolin-2-yl) isoindoline]
selectivity for I2 receptors over adrenoceptors, dopamine, 5-HT, muscarinic receptors and dihydropyridine binding sites ([5]; ref Brown et al., 1995): > 1000 fold | phenyzoline-appropriate (drug-associated lever) responding, maximum ([1]; substitution test in rats discriminating 32 mg/kg phenyzoline): > 80% | BU224-appropriate (drug-associated lever) responding, maximum ([2]; substitution test in rats discriminating 5.6 mg/kg BU224): > 80%

NCCCCN=C(N)N [agmatine]
substitution for BU224 discriminative stimulus [2]: partial or less substitution

Clc1cccc(Cl)c1N=C1NCCN1 [clonidine]
substitution for phenyzoline discriminative stimulus [1]: partial substitution | substitution for BU224 discriminative stimulus [2]: partial or less substitution

O=C(CCCN1CCC(O)(c2ccc(Cl)cc2)CC1)c1ccc(F)cc1 [haloperidol]
antagonism of the discriminative stimulus effects of phenyzoline [1]: failed to antagonize | antagonism of the discriminative stimulus effects of BU224 [2]: failed to antagonize

COc1ccc2c3c([nH]c2c1)C(C)=NCC3 [harmaline]
substitution for 2-BFI discriminative stimulus [4]: fully substitute

Cc1nccc2c1[nH]c1ccccc12 [harmane]
substitution for CR4056 discriminative stimulus [6]: does not substitute | substitution for phenyzoline discriminative stimulus [1]: only partially substitutes | substitution for BU224 discriminative stimulus [2]: fully substitutes | substitution for 2-BFI discriminative stimulus [4]: fully substitute

c1ccc2c(c1)OCC(C1=NCCN1)O2 (centres unmarked) [idazoxan]
substitution for phenyzoline discriminative stimulus [1]: fully substituted | substitution for BU224 discriminative stimulus [2]: fully substituted | substitution for 2-BFI discriminative stimulus [4]: fully substitutes

CNC1(c2ccccc2Cl)CCCCC1=O (centres unmarked) [ketamine]
substitution for BU224 discriminative stimulus [2]: partial or less substitution

CCC(=O)C(CC(C)N(C)C)(c1ccccc1)c1ccccc1 (centres unmarked) [methadone]
substitution for BU224 discriminative stimulus [2]: partial or less substitution

CN[C@@H](C)Cc1ccccc1 [methamphetamine]
substitution for phenyzoline discriminative stimulus [1]: partial substitution | substitution for BU224 discriminative stimulus [2]: partial or less substitution

CN1CC[C@]23c4c5ccc(O)c4O[C@H]2[C@@H](O)C=C[C@H]3[C@H]1C5 [morphine]
substitution for phenyzoline discriminative stimulus [1]: partial substitution | substitution for BU224 discriminative stimulus [2]: partial or less substitution

O=C1CC[C@@]2(O)[C@H]3Cc4ccc(O)c5c4[C@@]2(CCN3CC2CC2)[C@H]1O5 [naltrexone]
antagonism of the discriminative stimulus effects of phenyzoline [1]: failed to antagonize | antagonism of the discriminative stimulus effects of BU224 [2]: failed to antagonize

c1ccc(CCC2=NCCN2)cc1 [phenyzoline, 4,5-dihidro-2-(2-phenylethyl)-1H-imidazole]
inhibition at 0.01 µM [7]: -5.5% | inhibition at 0.01 µM [8]: 22.9% | inhibition at 0.01 µM [9]: -2.6% | inhibition at 0.01 µM [10]: -10.9% | inhibition at 0.01 µM [11]: -13.3% | inhibition at 0.01 µM [12]: 43.6% | inhibition at 0.01 µM [13]: -0.5% | inhibition at 0.01 µM [14]: 7.1% | inhibition at 0.01 µM [15]: 0.9% | inhibition at 0.01 µM [16]: 5.4% | inhibition at 0.01 µM [17]: 5% | inhibition at 0.01 µM [18]: -2% | inhibition at 0.01 µM [19]: -2.7% | inhibition at 0.01 µM [20]: 42.7% | substitution for CR4056 discriminative stimulus [6]: fully substituted | inhibition at 0.01 µM [21]: -11.6% | duration of discriminative stimulus effects ([1]; 32 mg/kg phenyzoline i.p.): 90 min | effect on response rate ([1]; rat, in vivo): without significantly altering response rate | inhibition at 0.01 µM [22]: 23.7% | inhibition at 0.01 µM [23]: 4.6% | inhibition at 0.01 µM [24]: -14.1% | inhibition at 0.01 µM [25]: 14.3% | inhibition at 0.01 µM [26]: 25.9% | inhibition at 0.01 µM [27]: 21.9% | inhibition at 0.01 µM [28]: -4.1% | inhibition at 0.01 µM [29]: 11.1% | inhibition at 0.01 µM [30]: -10.1% | inhibition at 0.01 µM [31]: -4.2% | Ki [32]: 851 nM | inhibition at 0.01 µM [33]: -0.6% | inhibition at 0.01 µM [34]: -7.3% | inhibition at 0.01 µM [35]: 6.8% | inhibition at 0.01 µM [36]: 6.3% | inhibition at 0.01 µM [37]: 38.4% | inhibition at 0.01 µM [38]: 17.3% | inhibition at 0.01 µM [39]: 10.4% | inhibition at 0.01 µM [40]: 15.2% | Ki [41]: > 10000 nM | inhibition at 0.01 µM [42]: 29.6% | inhibition at 0.01 µM [43]: 9.1%

C(=C\c1ccccc1)/C1=NCCN1 [tracizoline, 2-styryl-4,5-dihydro-lH-imidazole]
selectivity for I2 receptors over I1 receptors ([5]; ref Pigini et al., 1997): 10 fold | selectivity for I2 receptors over α2 adrenoceptors ([5]; ref Pigini et al., 1997): 7431 fold
